Test results published in publication PMC3705364, “Biochemical and Electrophysiological Characterization of Two Sea Anemone Type 1 Potassium Toxins from a Geographically Distant Population of Bunodosoma caissarum” (Marine Drugs, 2013).
Entries after “also recorded” stand apart in the source; their conditions may differ. Where a SMILES comes first, the peptide text is derived from it. Bridges are numbered along the chain shown (N, C = ends).

Assays:
Shaker IR = biological target: T1, Shaker IR (Drosophila melanogaster, UniProt P08510, DEL6-46); assay: Current-voltage (I-V) experiments, voltage dependence and reversibility on Shaker IR; assay type: cell-based, insect
T1 construct: expressed in transfected cells; host or cells: Xenopus laevis oocytes injected with cRNA
Description: In order to elucidate whether BcsTx-1 and -2 block the current through a physical obstruction of the Shaker IR channel pore or act as gating modifiers, current-voltage (I-V) experiments were performed. The currents were inhibited at the test potentials from −90 to 100 mV, and the inhibition was not associated with a change of the shape of the I-V relationship. The control curve and the curve in the presence of BcsTx1 (500 nM) were characterized by a V1/2 values of 20.85 ± 0.69 mV and 22.62 ± 0.73 mV, respectively. Moreover, the control curve and the curve in the presence of BcsTx2 (50 nM) were characterized by a V1/2 values of 18.49 ± 1.49 mV and 23.88 ± 1.57 mV, respectively. […] To date, type 1 sea anemone toxins have been described to act solely through a KV channel pore-blocking mechanism.
Figure 8 Functional features of BcsTx1 and BcsTx2 on KV channels. (A, B) Dose-response curves of BcsTx1 and BcsTx2 on rKV1.1, rKV1.2, hKV1.3, rKV1.6 and Shaker IR channels. The curves were obtained by plotting the percentage blocked current as a function of increasing toxin concentrations. All data are presented as the mean ± standard error (n ≥ 3). (C, D) Current-voltage relationship for Shaker IR isoform in control condition and in the presence of BcsTx1 (500 nM) and BcsTx2 (50 nM). Current traces were evoked by 10 mV depolarization steps from a holding potential of −90 mV. Open circles indicates the V1/2 in control; closed circles indicate the addition of toxins. (E, F) Percentage of currents left after application of BcsTx1 (500 nM) and BcsTx2 (50 nM) on Shaker IR channel. […] (G, H) Representative experiment of the time course of Shaker IR current inhibition with BcsTx1 (500 nM) and BcsTx2 (3000 nM) and the reversibility hereof. Control (open square); washout (open circles). […] Plots shown are a representative of at least three individual experiments.
Stage V–VI of X. laevis oocytes were harvested by partial ovariectomy under anesthesia (3-aminobenzoic acid ethyl ester methanesulfonate salt, 0.5 g/L from Sigma-Aldrich Co., Saint Louis, MO, USA). The oocytes were defolliculated for 2 h by treatment with 2 mg/mL collagenase (Sigma-Aldrich Co., Saint Louis, MO, USA) in Ca^2+ free ND96 solution (in mM: 96 NaCl; 2 KCl; 1 MgCl2; 5 HEPES adjusted pH 7.4). […]
Two-electrode voltage-clamp recordings were performed at room temperature (18–22 °C) using a Geneclamp 500 amplifier (Molecular Devices, Sunnyvale, CA, USA) controlled by a pClamp data acquisition system (Axon Instruments, Union City, CA, USA). Whole-cell currents from oocytes were recorded from 1 to 3 days after injection. […]

hKV1.3 = hKV1.3 (Homo sapiens, UniProt P22001); assay: Two-electrode voltage-clamp, X. laevis oocytes expressing hKV1.3; assay type: cell-based; design: expressed in transfected cells; host or cells: Xenopus laevis oocytes injected with cRNA
Description: Stage V–VI of X. laevis oocytes were harvested by partial ovariectomy under anesthesia (3-aminobenzoic acid ethyl ester methanesulfonate salt, 0.5 g/L from Sigma-Aldrich Co., Saint Louis, MO, USA). The oocytes were defolliculated for 2 h by treatment with 2 mg/mL collagenase (Sigma-Aldrich Co., Saint Louis, MO, USA) in Ca^2+ free ND96 solution (in mM: 96 NaCl; 2 KCl; 1 MgCl2; 5 HEPES adjusted pH 7.4). For the expression of KV channels (KV1.1–KV1.6, KV2.1, KV3.1, KV4.2, KV4.3, hERG and the insect channel Shaker IR), the linearized plasmids were transcribed using the T7 or SP6 mMessage-mMachine transcription kit (Ambion, Austin, TX, USA). Oocytes were injected with 50 nL of cRNA at a concentration of 1 ng/nL using a microinjector (Drummond Scientific, Broomall, PA, USA). The oocytes were maintained in a ND96 solution (in mM: 96 NaCl, 2 KCl, 1.8 CaCl2, 2 MgCl2 and 5 HEPES; adjusted pH 7.4), supplemented with 50 µg/mL gentamicin sulfate.
Two-electrode voltage-clamp recordings were performed at room temperature (18–22 °C) using a Geneclamp 500 amplifier (Molecular Devices, Sunnyvale, CA, USA) controlled by a pClamp data acquisition system (Axon Instruments, Union City, CA, USA). Whole-cell currents from oocytes were recorded from 1 to 3 days after injection. Bath solution was the same ND96 solution described above. Voltage and current electrodes were filled with 3 M KCl. Resistances of both electrodes were kept between 0.8 and 1.0 ΩM. The elicited currents were filtered at 500 Hz using a four-pole lowpass Bessel filter. Leak subtraction was performed using a −P/4 protocol. KV1.1–KV1.6 and Shaker IR currents were evoked by 500 ms depolarizations to 0 mV, followed by a 500 ms pulse to −50 mV, from a holding potential of −90 mV. Current traces of hERG channels were elicited by applying a +40 mV prepulse for 2 s, followed by a step to −120 mV for 2 s. KV3.1, KV 4.2 and KV4.3 currents were elicited by 500 ms pulses to +20 mV from a holding potential of −90 mV. To assess the concentration-response relationships, data were fitted with the Hill equation: y = 100/[1 + (EC50/[toxin])h] (1) where y is the amplitude of the toxin-induced effect, EC50 is the toxin concentration at half maximal efficacy, [toxin] is the toxin concentration and h is the Hill coefficient. In order to investigate the current-voltage relationship, current traces were evoked by 10 mV depolarization steps from a holding potential of −90 mV. […]
Comparison of two sample means was made using a paired Student’s t test (p < 0.05). […] All data were analyzed using Clampfit 10.3 (Molecular Devices, Sunnyvale, CA, USA) and Origin 7.5 software (Origin Lab., Northampton, MA, USA).

T1 sequence (P08510 with tags, fused parts or gaps DEL6-46): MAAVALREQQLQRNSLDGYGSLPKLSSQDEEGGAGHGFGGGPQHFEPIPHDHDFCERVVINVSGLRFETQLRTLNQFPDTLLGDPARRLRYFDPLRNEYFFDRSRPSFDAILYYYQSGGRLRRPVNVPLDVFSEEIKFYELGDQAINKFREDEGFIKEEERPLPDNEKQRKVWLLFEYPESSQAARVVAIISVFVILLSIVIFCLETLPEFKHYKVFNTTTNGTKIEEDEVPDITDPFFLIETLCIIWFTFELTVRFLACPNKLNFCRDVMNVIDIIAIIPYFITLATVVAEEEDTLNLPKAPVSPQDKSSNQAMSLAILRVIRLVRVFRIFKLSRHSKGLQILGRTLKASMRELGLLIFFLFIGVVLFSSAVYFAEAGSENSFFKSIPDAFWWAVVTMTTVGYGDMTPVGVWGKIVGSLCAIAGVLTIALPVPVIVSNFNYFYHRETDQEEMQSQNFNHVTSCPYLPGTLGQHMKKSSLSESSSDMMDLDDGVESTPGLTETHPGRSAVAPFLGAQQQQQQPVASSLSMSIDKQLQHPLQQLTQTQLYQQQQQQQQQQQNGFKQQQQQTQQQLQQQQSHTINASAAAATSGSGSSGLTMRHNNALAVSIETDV
hKV1.3, sequence (P22001 whole entry): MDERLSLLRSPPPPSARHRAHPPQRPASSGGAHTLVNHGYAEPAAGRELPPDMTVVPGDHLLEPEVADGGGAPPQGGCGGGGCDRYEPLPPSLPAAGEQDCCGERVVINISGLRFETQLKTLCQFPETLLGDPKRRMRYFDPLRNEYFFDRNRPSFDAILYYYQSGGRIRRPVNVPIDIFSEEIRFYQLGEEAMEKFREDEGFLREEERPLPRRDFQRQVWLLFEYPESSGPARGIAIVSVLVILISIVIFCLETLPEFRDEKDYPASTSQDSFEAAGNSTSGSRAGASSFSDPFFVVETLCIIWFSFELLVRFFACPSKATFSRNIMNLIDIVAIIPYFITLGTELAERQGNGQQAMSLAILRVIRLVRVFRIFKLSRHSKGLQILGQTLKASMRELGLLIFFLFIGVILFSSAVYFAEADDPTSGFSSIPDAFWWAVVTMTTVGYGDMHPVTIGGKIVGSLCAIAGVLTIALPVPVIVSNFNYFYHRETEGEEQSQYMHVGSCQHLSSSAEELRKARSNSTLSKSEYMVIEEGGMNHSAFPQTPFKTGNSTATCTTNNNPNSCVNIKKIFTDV

## CC(C)C[C@@H]1NC(=O)[C@H](CCCCN)NC(=O)[C@H](C)NC(=O)[C@H](Cc2c[nH]cn2)NC(=O)[C@H](CCC(N)=O)NC(=O)[C@@H]2CSSC[C@@H]3NC(=O)[C@H](CC(N)=O)NC(=O)[C@H](C)NC(=O)[C@H](CCCNC(=N)N)NC(=O)[C@H](Cc4ccc(O)cc4)NC(=O)[C@H](CCCCN)NC(=O)[C@H](CCC(N)=O)NC(=O)[C@H](CO)NC(=O)[C@H](CC(N)=O)NC(=O)[C@H](CCCCN)NC(=O)[C@H](CSSC[C@H](NC(=O)[C@H]([C@@H](C)O)NC(=O)[C@H](CCCCN)NC(=O)[C@H](C)NC3=O)C(=O)NCC(=O)N3CCC[C@H]3C(=O)N[C@H](C(=O)O)CSSC[C@H](NC(=O)[C@H](C)N)C(=O)N[C@@H](CCCCN)C(=O)N[C@@H](CC(=O)O)C(=O)NCC(=O)N[C@@H](Cc3ccccc3)C(=O)N3CCC[C@H]3C(=O)N[C@@H]([C@@H](C)O)C(=O)N[C@@H](C)C(=O)N[C@@H]([C@@H](C)O)C(=O)N2)NC(=O)[C@H](CC(N)=O)NC(=O)CNC(=O)[C@H](C(C)C)NC1=O [BcsTx2] (H-ACKDGFPTATCQHAKLVGNCKNSQKYRANCAKTCGPC-OH; disulfide 2-37, 11-30, 20-34; C-terminus assumed)
Shaker IR; Shaker IR, BcsTx1 500 nM, BcsTx2 3000 nM, washout
  reversibility of blockage upon washout (in words): reversible, and a complete recovery was observed after washout; also recorded: binding was reversible upon washout
Shaker IR; Shaker IR, time course, BcsTx1 500 nM, BcsTx2 3000 nM
  onset of blockage (in words): Blockage occurred rapidly
Shaker IR; Shaker IR, −10 mV to 50 mV, BcsTx1 500 nM, BcsTx2 50 nM
  voltage dependence of blockage (in words): non-dependence of voltage for the blockage; also recorded: no difference was observed in the degree of BcsTx1- and BcsTx2-induced blockage
Shaker IR; in presence of 50 nM toxin, control 18.49 ± 1.49 mV, Boltzmann fit
  V1/2 of activation, Shaker IR: 23.88 ± 1.57 mV
hKV1.3; 3 µM, n ≥ 3, read-out: inhibition of hKV1.3 current
  inhibition at 3 µM: 100%
hKV1.3; TEVC, 18–22 °C, ND96 pH 7.4, 500 ms depolarizations to 0 mV from −90 mV, Hill fit, mean ± standard error, n ≥ 3
  IC50: 13.1 ± 3.29 nM
